Measurements as given in US7611863B2, “Selective staining of biomembranes using voltage-sensitive dyes” (Max-Planck-Gesellschaft zur Foerderung der Wissenschaften …, priority 2004, dated 2009).
Each block holds one molecule with its values, some of them ahead of it.

Key:
[1] = Dye-lipid binding by fluorescence lipid titration; type: physicochemical; settings: for average binding constant K to lipid membrane: POPC vesicles, Tris-NaCl buffer pH 8.1, 25° C., dye 0.5 μM; for binding constant to lipid membranes: fluorescence lipid titration, Example 2
Experimental: Dye-lipid binding. The binding of the dyes to lipid membranes was determined by fluorescence lipid titration^21 with large unilamellar vesicles (LUVs) made of 1-palmitoyl-2-oleoyl-phosphatidylcholine (POPC). The purity of the lipids was checked by 2-dimensional TLC^22. The vesicles were made by extrusion^23 in Tris-NaCl buffer (20 mM Tris, 100 mM NaCl, pH 8.1), using an extrusion apparatus and polycarbonate filters with 100 nm pore size (both Avestin Europe, Mannheim, Germany). Vesicle size was determined by quasielastic light scattering using an argon ion laser (Spectra-Physics, Darmstadt, Germany), a photomultiplier (Brookhaven Instruments, Vienna, Austria) and a correlator (ALV-5000, Langen, Germany). The lipid concentration was determined by a chromogenic enzyme assay (Biomerieux, Marcy I'Etoile, France). The standard deviation of three concentration measurements for every vesicle preparation was always below 4%. Vesicles were stored under argon at 4° C. in 15 ml Falcon Centrifuge Tubes (BD Labware Europe, Le Pont de Claix, France) and used within three days.
To measure dye binding constants, we prepared 1 mM solutions of the dyes 1-3 by ultrasonication in Ethanol (1) or Tris-NaCl buffer (2,3). […] In the same buffer, suspensions of POPC vesicles with concentrations ranging from 100 nM to 10 mM were prepared by dilution of stock solutions. Dye and lipid were pre-thermostatted to 25° C. […] The fluorescence emission recorded at 600 nm with excitation at 488 nm was used for the evaluation of the partition coefficients.
Dye binding to lipid. When styryl hemicyanines bind to lipid bilayers, their quantum yield of fluorescence is enhanced. […] We take advantage of that effect to examine the binding of Di-4-ASPP phosphate and Di-4-ASPP alcohol to lipid membranes by fluorescence titration^21. For comparison Di-4-ASPBS was also included in the investigation.
Dispersions of large lipid vesicles (Ø≈100 nm) were made from palmitoyl-oleoyl-phosphatidylcholine (POPC) with lipid concentrations ranging over five orders of magnitude. […] The fluorescence intensity was enhanced with increasing concentration of lipid for all three dyes. The enhancement was shifted to higher lipid concentrations in the order Di-4-ASPP alcohol, Di-4-ASPBS and Di-4-ASPP phosphate.
Binding. The dyes Di-10-phosphato-ASPBS (Di-10P-ASPBS) and Di-12-phosphato-ASPBS (Di-12P-ASPBS) as well as the corresponding products after enzymatic hydrolysis Di-10-hydroxy-ASPBS (Di-10A-ASPBS) and Di-12-hydroxy-ASPBS (Di-12A-ASPBS) were synthesized by organic chemical methods. Their binding to lipid membranes was tested by fluorescence lipid titration (cf. page 15, section dye binding to lipid). The binding constants amounted to 27 M^−1 (Di-10P-ASPBS), 250,000 M^−1 (Di-10A-ASPBS), 2100 M^−1 (Di-12P-ASPBS) and 3,000,000 M^−1 (Di-12P-ASPBS) (FIGS. 14 and 15 (center and right hand side)). The difference in binding constants between dye alcohol and dye phosphates (or dye precursors) therefore amounted to a factor of 10,000 for the pair Di-10P-ASPBS/Di-10A-ASPBS and to a factor of 1000 for the pair Di-12P-ASPBS/Di-12A-ASPBS. The binding curve for the more lipophilic pair Di-12P-ASPBS/Di-12A-ASPBS is shifted to […] lipid concentrations.

[2] = upon transfer from water to lecithin membranes; cited from earlier work
[3] = system: HEK 293 cells; assay: Staining of HEK 293 cells by activation of binding through soluble phosphatase; type: cell-based
Experimental: FIG. 12A to F: Staining of HEK 293 cells with a voltage sensitive dye by activation of binding through soluble phosphatase added to the incubation medium. HEK 293 cells (A, brightfield image) were incubated with the voltage sensitive fluorescent dye Di-8-phosphato-ASPBS (cf. FIG. 11, bottom) at a concentration of 19.6 μM. […] The images shown are optimized for contrast and intensity.

[4] = system: HEK 293 cells expressing fusion protein of plasma membrane anchor and PLAP; assay: Staining of HEK 293 cells through overexpressed membrane-bound phosphatase; type: cell-based
Source text: FIG. 13A to C: Staining of transfected HEK 293 cells with a voltage sensitive dye by activation of binding through an overexpressed, membrane-bound phosphatase. HEK 293 cells were cotransfected with a vector coding for GFP and a vector coding for a fusion protein of a plasma membrane anchor and phosphatase from the human placenta. A. fluorescence image showing the GFP fluoresence of a transfected cell (excitation filter 450/50 nm, emission filter 510 nm longpass; dichroic mirror: 505 nm). B. The voltage sensitive fluorescent dye Di-8-phosphato-ASPBS (cf. FIG. 11, bottom) was added to the incubation medium. […] C. […] The images shown are optimized for contrast and intensity.
(§1) FIG. 16. Genetically Targeted Staining of HEK293 cells with 1 mM Di-10P-ASPBS. A mixture of stable clones either expressing the membrane-bound phosphatase construct or cytosolic GFP were cultured on the same dish. (A) From left to right: (i) Brightfield image of cells. (ii) Fluorescence image of cells showing cells expressing cytosolic GFP (excitation filter 450/50 nm, emission filter 510 nm, dichroic mirror 505 nm). (iii) Cells expressing phosphatase as obtained by subtraction of GFP expressing cells from image i. (iv) Fluorescence image of cells with filters exc. 535/50 nm, em. 610/75 nm; dichroic mirror 535 nm. The image is normalized to the same level as in row B. (v) autoleveled image iv, showing fluorescence crosstalk of GFP. (B) Enzyme induced staining of cells as measured with filter set exc. 535/50 nm, em. 610/75 nm; dichroic mirror 535 nm. The membrane fluorescence increases over time. (C). Inverted and contrast-enhanced fluorescence images corresponding to row B. (D) Difference images. The image A/iv was subtracted from the images in row B. The resulting images were inverted and contrast was enhanced.
as §1, with “17.” for “16.”, “200 nM Di-12P-ASPBS.” for “1 mM Di-10P-ASPBS.”, “difference” for “and contrast-enhanced fluorescence images corresponding to row B. (D) Difference”, “enhanced. (D) Contrast enhanced images of row C.” for “enhanced.”
Enzyme induced staining. The dye precursors Di-10P-ASPBS and Di-12P-ASPBS were used to effect enzyme induced staining on cells. To test whether the staining is selective, a mixture of two cell populations was cultured in the same dish. One of these stably expressed the phosphatase construct, while the other was stably expressing GFP as a negative marker.

[5] = system: Madine Darby Canine Kidney (MDCK) cells; assay: Enzyme induced staining of transiently transfected MDCK cells; type: cell-based
Experimental: FIG. 19. Genetically Targeted Staining of MDCK cells with Di-10P-ASPBS and Di-12P-ASPBS. (A) Cells were cotransfected with the membrane-bound phosphatase construct termed ArtPlasMA AP and H2B-GFP, a nucleus-localized transfection marker. Brightfield image and fluorescence images before (−1 sec) and after addition of 200 nM Di-10P-ASPBS. (B) Analogous to row A, but using 200 nM Di-12P-ASPBS. (C) Control experiment. Cells were transfected only with H2B-GFP and incubated with 200 nM Di-12P-ASPBS. Brightfield image and fluorescence images before (−1 sec) and after addition of dye (8 min). (D) Control experiment. Cells were cotransfected with the membrane-bound phosphatase construct termed ArtPlasMA AP and H2B-GFP and incubated with the dye Di-10A-ASPBS. Brightfield image and fluorescence image before (−1 sec) and after addition of dye (20 sec).
Two control experiments were performed: In the first control, cells were transfected only with the transfection marker H2B-GFP. […] In addition, no difference in staining intensity between transfected and untransfected cells can be discerned (FIG. 19C). In the second control experiment, cells were cotransfected with the phosphatase construct and the transfection marker.

[6] = cells cotransfected with ArtPlasMA AP and H2B-GFP, 200 nM

Molecule: CCCCN(CCCC)c1ccc(/C=C/c2cc[n+](CCCO)cc2)cc1.[Br-] [Di-4-ASPP alcohol, 1-[γ-hydroxypropyl]-trans-4-[p-(di-n-butylamino)styryl]-pyridinium bromide]
average binding constant K to lipid membrane [1]: 17920 ± 360 M⁻¹

Molecule: Di-8-phosphato-ASPBS
permeation of the cell plasma membrane ([3]; 19.6 μM, 30 minutes, cell interior stained only slightly): permeates the cell plasma membrane very slowly
membrane fluorescence before enzyme addition ([3]; 19.6 μM, after 30 minutes, no enzyme): no membrane fluorescence could be detected
membrane fluorescence after addition of soluble PLAP ([3]; PLAP 0.18 DEA Units/ml, 15 sec to 6 min): membrane fluorescence was activated and increased over time
membrane fluorescence directly after dye addition ([4]; transfected HEK 293 cell): no membrane fluorescence was visible
membrane staining after 5 min of incubation ([4]; transfected HEK 293 cell): the membrane of the transfected cell was clearly stained
membrane fluorescence of untransfected control cells ([4]; untransfected HEK 293 cells incubated with the dye): did not show any membrane fluorescence

Molecule: Di-10-hydroxy-ASPBS [Di-10A-ASPBS]
binding constant to lipid membranes [1]: 250,000 M^−1
staining by product dye, transfected versus untransfected cells ([5]; cotransfected with phosphatase construct and H2B-GFP): equally and unselectively stained

The next lines start with results.

average binding constant K to lipid membrane [1]: 7500 ± 440 M⁻¹
increment of the binding energy Δ(ΔG) relative to the alcohol ([1]; −RT ln(K/KA)): 2.2 kJ/mol
Molecule: CCCCN(CCCC)c1ccc(C=Cc2cc[n+](CCCCS(=O)(=O)[O-])cc2)cc1 [Di-4-ASPBS, Di-4-ASP butylsulfonate, reference compound]
increase in fluorescence quantum yield [2]: 36 fold

binding constant to lipid membranes [1]: 27 M⁻¹
difference in binding constants between dye alcohol and dye phosphate (precursor) ([1]; pair precursor/product dye): 10,000 factor
Molecule: Di-10-phosphato-ASPBS [Di-10P-ASPBS]
enzyme induced membrane staining in mixed cell populations ([4]; phosphatase clones and GFP clones in same dish, 1 mM Di-10P-ASPBS, 200 nM Di-12P-ASPBS): allowed enzyme induced membrane staining
localization of staining at beginning of experiment [5, 6]: staining is localized to the transfected cells at the beginning of the experiment
localization of staining over several minutes [5, 6]: the produced dye diffuses to the surrounding, nontransfected cells
